One data set concerns PC-12 cell line. Description: Cytotoxicity study (MTT) on PC-12 cells. Type of data set: cell-based. The settings on record: Rattus norvegicus. The procedure: (§1) SY-SH5Y and PC-12 cell lines were used in in vitro cell culture studies. SH-SY5Y cells in a medium consisting of minimum Essential Medium (Eagle) and 10% fetal bovine serum (FBS); PC-12 cells were produced in a medium consisting of RPMI 1640 medium, 10% horse serum, and 5% fetal bovine serum (FBS). All cells were incubated in 5% CO2 and 37 °C. Fresh medium was added by changing the medium every 2 days. After the cells were produced enough to cover 80% of the flasks, they were separated from the flask by means of a 0.25% (W / V) trypsin–EDTA solution and plated in 24-well plates for incorporation studies and 96-well plates for cytotoxicity studies and study groups were formed.
(§2) Cells were prepared from SY-SH5Y and PC-12 cell suspensions at 5 × 10^4 cells / mL in each well of 96-well plates. One hundred microliters of cell suspension was added to each well-formed and the solution containing MA prepared with sterile SF at five different (10^0, 10^–1, 10^–2, 10^–3, 10^–4 nM) concentrations was added to the wells outside the control. As a negative control, media without cells and reagents were used. In the study, each parameter was studied in triplicate. The plate containing the cells was incubated at 37 °C in 5% CO2. SH-SY5Y cells were incubated at 24, 48, and 72 h of incubation by adding 10 μl of WST solution to each well and incubating for another 4 h. On other hand, MTT solution was added to PC-12 cells and incubated for 4 more hours. At the end of the incubation, the MTT solution on the cells was removed and 200 µL DMSO was added to the PC-12 cells. All cells were read using a spectrophotometer, at 450 nm wavelength and 690 nm reference range, for the absorbance value of each well. Negative control was accepted as zero absorbance and % viability values were calculated with the formula [(measured absorbance value/control value) × 100] and the same procedures were repeated for the MA-L-DOPA compound.

For a further data set, the system named is SH-SY5Y cell line. The data set can be described thus: Cytotoxicity study (WST) on SH-SY5Y cells. In kind it is cell-based. The settings on record: Homo sapiens. The protocol: as §1, §2
Details of data set [1]: method as in PMID 27992940. The settings on record: rats; cited from earlier work.

Structures are written as SMILES.

As usually defined, the IC50 is the midpoint of a concentration-inhibition curve. Take `CC1CCC2(C(=O)OC3OC(COC4OC(CO)C(OC5OC(C)C(O)C(OC(=O)C(N)Cc6ccc(O)c(O)c6)C5O)C(O)C4O)C(O)C(O)C3O)CCC3(C)C(=CCC4C5(C)CC(O)C(O)C(C)(CO)C5C(O)CC43C)C2C1C` [MA-L-DOPA]: the concentration for half-maximal inhibition (IC50) in the data set on PC-12 cell line (PC-12, 24 hour) was found to be 12.5 ± 2.21 µM; with PC-12 cell line (PC-12, 48 hour) it was 10 ± 2.06 µM; with PC-12 cell line (PC-12, 72 hour) it was 6.93 ± 1.09 µM; in the data set on SH-SY5Y cell line (24 hour), 12.9 ± 2.09 µM; with SH-SY5Y cell line (48 hour) it was 10.1 ± 2.08 µM; in the data set with SH-SY5Y cell line (72 hour), 7.16 ± 1.11 µM.
Turning to `C[C@H]1[C@H](C)CC[C@]2(C(=O)O[C@@H]3O[C@H](CO[C@@H]4O[C@H](CO)[C@@H](O[C@@H]5O[C@@H](C)[C@H](O)[C@@H](O)[C@H]5O)[C@H](O)[C@H]4O)[C@@H](O)[C@H](O)[C@H]3O)CC[C@]3(C)C(=CC[C@@H]4[C@@]5(C)C[C@@H](O)[C@H](O)[C@@](C)(CO)[C@@H]5[C@H](O)C[C@]43C)[C@H]12` [MA, Madecassoside], the “time within which uptake in the brain tissue occurs” value in data set [1] is ≤ 1 h. Besides, the half-maximal inhibitory concentration (IC50) in the data set with PC-12 cell line (PC-12, 24 hour) came out at 12.8 ± 2.21 µM; in the data set on PC-12 cell line (PC-12, 48 hour), 12.6 ± 2.41 µM; in the data set with PC-12 cell line (PC-12, 72 hour), 8.54 ± 1.37 µM; in the data set with SH-SY5Y cell line (24 hour), 12.9 ± 2.14 µM; in the data set with SH-SY5Y cell line (48 hour), 12.8 ± 2.24 µM; in the data set on SH-SY5Y cell line (72 hour), 7.45 ± 1.14 µM.

Values taken from publication PMC11496352, “Synthesis of Novel Plant-Derived Encapsulated Radiolabeled Compounds for the Diagnosis of Parkinson’s Disease and the Evaluation of Biological Effects with In Vitro/In Vivo Methods” (Molecular Neurobiology, 2024).
